In patent US7893299B2, “Interleukin-1 and tumor necrosis factor-αmodulators; syntheses of such modulators and methods of using such modulators” (Nereus Pharmaceuticals, Inc., priority 2005, dated 2011):
Where two headings read alike, the source gives them in different places.

Tests used:
[1] = system: bone marrow stromal cells (BMSCs); test: viability of MM patient-derived bone marrow stromal cells (BMSCs); type: cell-based
Source text: Besides nuclear condensation, NF-KB inhibitor triggered proteolytic cleavage of poly (ADP ribose) polymerase (PARP), a hallmark of apoptosis.

[2] = system: IRAK1; type: cell-based; conditions: LPS-stimulated RAW264.7; 1, 5, 10 and 20 μM
Protocol: (§1) Cells were treated with 1, 5, 10 and 20 μM of NPI-1387 for 1 hour and then stimulated with 10 ng/ml LPS for 10 or 30 min. To determine the phosphorylation of IRAK1, whole cell extracts were prepared in RIPA buffer [0.9% NaCl, 50 mM Tris-HCl (pH7.4), 1% Triton X-100, 1 mM EDTA, 0.25% Na-deoxycholic acid, 0.1% SDS, 1 mM Na3VO4, 1 mM NaF and protease inhibitors]. […] Following electro-transfer, the membranes were blocked in Blotto (5%, w/v) non-fat milk in 1×TBST [20 mM Tris, 0.8% (w/v) NaCl, pH 7.6, 0.1% (v/v) Tween 20]. Membranes were then incubated with primary antibodies against IRAK1 (Santa Cruz Biotechnology), total IκBα (Cell Signaling Technology), phospho-IκBα (Cell Signaling Technology) and Tubulin (Lab Vision) in Blotto for 2 hours. The membranes were washed in TBST and (where necessary) incubated with the HRP-conjugated secondary antibody in Blotto for 1 hour before washing extensively with TBST. HRP activity was visualized by utilizing either SuperSignal West Pico or Dura chemiluminescent detection systems (Pierce Biotechnology). […] The protein samples were separated by 10% NuPAGE MES precast gels (Invitrogen) and the extent of GST-IκBα phosphorylation was evaluated by western blotting using the antibody against phospho-IκBα (Cell Signaling Technology).

[3] = biological target: IKKα (Mus musculus, UniProt Q60680); type: cell-based; conditions: LPS-stimulated RAW264.7; 1, 5, 10 and 20 μM
Protocol: as §1

[4] = system: NF-κB DNA binding activity; test: NF-κB DNA binding activity, EMSA, RPMI 8226; type: cell-based; conditions: LPS
[5] = system: U266 (MM); test: 48 hr cytotoxicity, U266; type: cell-based, human
Protocol: B16-F10 (ATCC; CRL-6475), DU 145 (ATCC; HTB-81), HEK293 (ATCC; CRL-1573), HT-29 (ATCC; HTB-38), LoVo (ATCC; CCL-229), MDA-MB-231 (ATCC; HTB-26), MIA PaCa-2 (ATCC; CRL-1420), NCI-H292 (ATCC; CRL-1848), OVCAR-3 (ATCC, HTB-161), PANC-1 (ATCC; CRL-1469), PC-3 (ATCC; CRL-1435), RPMI 8226 (ATCC; CCL-155) and U266 (ATCC; TIB-196) are maintained in appropriate culture media. The cells are cultured in an incubator at 37° C. in 5% CO2 and 95% humidified air.
For cell growth inhibition assays, B16-F10, DU 145, HEK293, HT-29, LoVo, MDA-MB-231, MIA PaCa-2, NCI-H292, OVCAR-3, PANC-1, PC-3, RPMI 8226 and U266 cells are seeded at 1.25×10^3, 5×10^3, 1.5×10^4, 5×10^3, 5×10^3, 1×10^4, 2×10^3, 4×10^3, 1×10^4, 7.5×10^3, 5×10^3, 2×10^4, 2.5×10^4 cells/well respectively in 90 μl complete media into Corning 3904 black-walled, clear-bottom tissue culture plates. 20 mM stock solutions of compounds of Formula II, IIA, and IIB are prepared in 100% DMSO, aliquoted and stored at −80° C. Compounds of Formula II, IIA, and IIB are serially diluted and added in triplicate to the test wells resulting in final concentrations ranging from of 20 μM to 0.2 pM. […]
Following 48 hours of drug exposure, 10 μl of 0.2 mg/ml resazurin (obtained from Sigma-Aldrich Chemical Co.) in Mg^2+, Ca^2+ free phosphate buffered saline is added to each well and the plates are returned to the incubator for 3-6 hours. Since living cells metabolize Resazurin, the fluorescence of the reduction product of Resazurin is measured using a Fusion microplate fluorometer (Packard Bioscience) with λex=535 nm and λem=590 nm filters. […]
The cytotoxicity assays were performed by seeding individual cell lines at appropriate density in the 96 well flat-bottomed plates and allowed to attach for 24 hours at 37° C., 5% CO2 and 95% humidified air (RPMI 8226 and U266 cells were plated in 96 well plates on the day of compound addition). […] Cell viability was assessed 48 hours later by measuring the fluorescence of the reduction product of Resazurin by a Fusion microplate fluorometer (PerkinElmer) with λex=535 nm and λem=590 nm filters. […]

Sequence of IKKα (Q60680 whole entry): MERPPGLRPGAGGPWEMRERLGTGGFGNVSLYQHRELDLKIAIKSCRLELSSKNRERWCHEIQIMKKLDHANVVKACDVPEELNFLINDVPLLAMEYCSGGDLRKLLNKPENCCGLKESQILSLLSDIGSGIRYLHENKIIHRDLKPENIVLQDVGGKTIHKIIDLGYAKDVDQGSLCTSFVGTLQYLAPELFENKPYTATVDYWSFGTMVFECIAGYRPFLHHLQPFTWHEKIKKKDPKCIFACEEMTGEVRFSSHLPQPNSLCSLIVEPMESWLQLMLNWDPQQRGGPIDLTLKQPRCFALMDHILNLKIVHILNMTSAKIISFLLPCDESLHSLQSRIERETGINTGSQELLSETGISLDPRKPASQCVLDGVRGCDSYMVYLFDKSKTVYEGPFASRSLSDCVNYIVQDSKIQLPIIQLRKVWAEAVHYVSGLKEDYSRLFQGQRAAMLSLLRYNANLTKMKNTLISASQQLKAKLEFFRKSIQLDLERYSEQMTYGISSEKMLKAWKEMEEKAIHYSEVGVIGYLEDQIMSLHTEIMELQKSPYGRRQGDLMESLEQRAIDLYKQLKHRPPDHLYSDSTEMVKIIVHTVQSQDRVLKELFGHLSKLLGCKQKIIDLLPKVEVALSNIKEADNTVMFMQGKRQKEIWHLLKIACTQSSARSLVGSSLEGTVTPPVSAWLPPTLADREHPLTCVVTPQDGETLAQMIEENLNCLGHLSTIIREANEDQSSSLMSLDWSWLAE

C=CC(=O)C1(C)CCCC2(C)C3=CCC(C)(C=C)C[C@@H]3CC[C@H]12 (stereo in doubt) [NPI-1387, 1-[(1S,4aS,7R)-1,4a,7-Trimethyl-7-vinyl-1,2,3,4,4a,6,7,8,8a,9,10,10a-dodecahydro-1-phenanthrenyl]-2-propen-1-one]
viability of bone marrow stromal (stem) cells [1]: does not affect the viability of bone marrow stem cells
viability of bone marrow stromal (stem) cells ([1]; listed as NF-KB inhibitor): does not affect the viability
phosphorylation of IRAK1 (and its downstream target IκBα) [2]: inhibits the phosphorylation of IRAK1
kinase activity of IKKα [3]: reduces kinase activity of IKKα in a dose-dependent manner
NF-κB DNA binding activity [4]: inhibits the DNA binding activity of NF-κB in a dose-dependent manner
IC50 [5]: 7 ± 1.9 µM
IC50 ([5]; Homo sapiens, U-266, 48 h): 8.7 ± 6.4 µM
